Tests used:
BRD4-BD2 = BRD4-BD2 (Homo sapiens, UniProt O60885); test: Protein Thermal Shift (PTS) assay on BRD4-BD2; type: binding; parameters: polyhistidine (N, cleaved yes); made in house; host or cells: E. coli (T7 express); settings: 100 μM ligand, 20 μM BD protein
Description: The genes encoding human BRD2-BD1, BRD2-BD2, and BRD4-BD2 were codon-optimized for expression in E. coli. […] The sequence-confirmed plasmids were used to transform T7 express E coli. Large-scale cell cultures were grown in LB media containing […] carbenicillin and incubated with shaking at 37° C. until the OD600 nm reached 0.6. Then cultures were cooled to 16° C., and 1 mM isopropyl β-D-1-thiogalactopyranoside was added to induce the protein expression. After 20 hours of incubation, cells were harvested. The resulting cell pellet was resuspended in a lysis buffer containing 50 mM Tris pH 7.5, 200 mM NaCl, 0.5 mM imidazole, and 0.3 mM tris(2-carboxyethyl) phosphine (TECP). After the addition of DNase I and lysozyme, the cell suspension was incubated on ice for 30 minutes and lysed by sonication. The lysate was clarified by centrifugation at 12,000 rpm for 45 minutes. The resulting supernatant was applied to a 5 mL metal affinity cobalt column pre-equilibrated with lysis buffer. Then, 25 column volumes of lysis buffer were passed through the column to eliminate unbound E coli proteins. Recombinant protein was eluted isocratically with the elution buffer containing 50 mM Tris pH 7.5, 200 mM NaCl, 150 mM imidazole, and 0.3 mM TECP. The rhinovirus 3C protease was added to the eluted recombinant protein to cleave the N-terminal Histidine tag and the sample dialyzed against a buffer containing 50 mM Tris pH 7.5, 100 mM NaCl and 0.3 mM TECP. After 12 hours, the protein solution was passed through a 5 ml cobalt column, which was pre-equilibrated with dialysis buffer, and the recombinant protein lacking the His-tag was collected from the flowthrough.
Each reaction used 20 μM concentration of recombinant BD protein in a 50 mM Tris pH 7.5 buffer containing 100 mM NaCl, 0.3 mM tris(2-carboxyethyl) phosphine HCl, and 1% dimethyl sulfoxide. Protein Thermal Shift Dye (ThermoFisher) was also added at 1× concentration. Under these conditions, 3 protein melting curves with each respective BD and 100 μM final concentration of ligand were performed from 25 to 95° C. with a ramp rate of 0.5° C./minute. Evaluation of the derivative of the fluorescence signal employed the Applied Bioscience Protein Thermal Shift Software version 1.3 to determine the average melting temperature (Tm) for each sample and the standard deviation(s) of those Tm values.

HD-MB03 cells = test: Annexin V/PI apoptosis assay in HD-MB03 cells; type: cell-based, human; settings: 48 hours of treatment; untreated 29.76%
Description: For apoptosis assay, the cells were collected as above and stained with 500 μL 1× binding buffer containing 5 μL annexin V-FITC and 10 μL propidium iodide (PI) in the dark for 5 minutes. Flow cytometry (FACSCalibur™ cytometer, BD Biosciences) was performed to quantify and calculate the cell apoptosis rate. AV-FITC values were set horizontally, and PI values were set as vertical axes. All experiments were performed in triplicate.

DAOY cells = test: Cell viability MTT assay in DAOY cells; type: cell-based, human; settings: 48-72 hours
Description: For cell viability assay, DAOY cells from SHH-MB group and HD-MB03 from Group 3 MB were exposed to new analogs in a range of concentrations. In brief, cells were seeded in 96-well plate with a density of 3×10^3 cells/well density for 16 hours. Cells were then treated with different drug concentrations for 48-72 hours. MTT assay reagent was added to the cells and after incubation for 4 hours, formazan crystals were dissolved in 200 μL DMSO, and the absorbance was determined using a microplate reader (Molecular Devices Me5). The IC50 was determined by nonlinear least square regression by performing each experiment in triplicate.

DAOY and HDMB-03 cells = test: Transwell migration assay; type: cell-based, human; settings: vs control
Description: FIGS. 2A-2D show the effect of MDP5 treatment on cell viability and migration potential in MB cells. FIGS. 2A and 2B provide graphs of cell viability assays with DAOY cells (FIG. 2A) and HD-MB03 cells (FIG. 2B) with the indicated compounds. FIG. 2C provides images of the Transwell® migration assay and FIG. 2D provides quantitation of the Transwell® migration assay (top: DAOY cells; bottom: HD-MB03 cells). Cells were fixed in formalin and stained with 0.5% crystal violet for 30 minutes. Images were taken using a microscope at 20× objective. Stained cells were then dissolved in acetic acid solution and optical density (OD) was measured at 590 nm. Scale bar: 100 μm. **P<0.01 and ***P<0.001 vs Control.
Further, the effect of MDPS on cell migration was investigated.

HD-MB03 and DAOY cells = test: Western blot of target proteins; type: cell-based, human; settings: for GLI1 and GLI2 protein expression: HD-MB03 and DAOY cells
Description: FIGS. 4A and 4B provide images of western blot analyses of target proteins after HDMB03 and DAOY cells were incubated with 5.0 μM of the indicated compounds for 48 hours. FIG. 4C (HD-MB03) and 4D (DAOY) provide western blot images which show the effects of MDP5 treatment on target proteins including GLI1 and GLI2. FIG. 4E provides representative confocal images of DAOY and HD-MB03 spheroids after treatment with 5.0 μM MDP5. […] Spheroids were stained for live (calcein AM) and dead (ethidium homodimer-1) cells after 7 days of treatment. Scale bars=200 μm. […] Next, cells were incubated with APC-CD15 for 30 minutes on ice in the dark. Before FACS analysis, samples were washed thrice with a staining buffer. FIG. 4G provides a graph showing the quantitation of CD15+ cells (n=3; p<0.05, control vs. treatment groups).
The whole protein from each treated group was extracted using RIPA buffer containing a cocktail of protease inhibitors (Sigma-Aldrich) for protein level determination. Protein concentration was determined using a BCA assay (Peirce). Next, 40 μg protein was subject to SDS-PAGE in a 10% gel. Following the transfer of targeted proteins onto polyvinylidene difluoride sheets, the membranes were washed with Tris-buffered saline plus Tween® 20 (TTBS; cat. no. WLA025; Wanleibio Co., Ltd.) for 5 minutes and then blocked with skimmed milk powder solution for 1 hour. Primary antibodies against Gli1 (1:1000), Gli2 (1:1000), MYCN (1:1,000), p-MYCN (1:1,000), Bcl-2 (1:1000), Bax (1:1000), p-PI3K (1:500), PI3K (1:1000), p-Akt (1:500), Akt (1:1000), Cyclin D1 (1:1000), and β-actin (1:1,000) were added and the membranes were incubated at 4° C. overnight. After an additional four washes with TBST, secondary IgG antibodies conjugated to horseradish peroxidase (1:5,000) were incubated with the membranes for 45 minutes at 37° C. Following a further six washes with TBST, the blots were developed using ECL start Western blotting detection kit (GE Healthcare) and the results were recorded in the iBright™ FL100 (Invitrogen). The relative expression levels of these proteins in different groups were calculated with the iBright™ software.

SMILES | BRD4-BD2 Tm increase (BRD4-BD2) [°C] | percentage of apoptosis, HD-MB03 (HD-MB03 cells) [%] | IC50 (DAOY cells) [µM] | IC50 (DAOY cells; Homo sapiens, Daoy) [µM] | cells migrated in Transwell migration assay (DAOY and HDMB-03 cells) | Cyclin D1, p-AKT (Ser473) and p-PI3K protein levels (HD-MB03 and DAOY cells; 5.0 μM, 48 hours) | p-MYCN (Ser54) level (HD-MB03 and DAOY cells; 5.0 μM, 48 hours) | GLI1 and GLI2 protein expression (HD-MB03 and DAOY cells) | GLI1 protein expression in HD-MB03 cells (HD-MB03 and DAOY cells; among treated HD-MB03 cells) | GLI2 protein accumulation (HD-MB03 and DAOY cells; compared with other treatments) | BRD4-BD2 Tm decrease (BRD4-BD2; thermal destabilization) [°C]
O=c1cc(N2CCOCC2)oc2c(-c3ccc4c(c3)OCCO4)cccc12 [MDP5, 8-(2,3-dihydrobenzo [b][1,4]dioxin-6-yl)-2-morpholino-4H-chromen-4-one] | 1.7 | 65.15 | 5.5 | 5.57 | decrease migration significantly | reduced | explicitly induced | decrease in levels of both proteins | largest reduction in GLI1 protein expression |  | 
O=c1cc(N2CCOCC2)oc2c(-c3ccc4c(c3)OCCO4)csc12 [SF2523, reference compound] | 3.4 | 54 | 12.6 |  | decreased the amount of DAOY and HDMB-03 cells migrated |  |  |  |  | exceeded all other treatment options in terms of lowering GLI2 protein accumulation | 
O=C(/C=C/N1CCOCC1)c1cccc(-c2cc3c(cc2Br)OCCO3)c1O [MDP1, (E)-1-(3-(7-bromo-2,3-dihydrobenzo [b][1,4]dioxin-6-yl)-2-hydroxyphenyl)-3-morpholinoprop-2-en-1-one] |  | 65.66 |  | 5.51 | decreased the amount of DAOY and HDMB-03 cells migrated |  |  | decrease in levels of both proteins |  |  | 1.3

From patent US20260069599A1, “INHIBITORS OF BROMODOMAIN-CONTAINING PROTEIN 4 AND PHOSPHOINOSITIDE 3-KINASE” (Board of Regents of the University of Nebraska, priority 2022, published 2026)
